Reference: US8058285B2, “Substituted pyrido [3′, 2′: 4, 5] thieno [3, 2-D] pyrimidines and pyrido [3′, 2′: 4, 5] furo [3, 2-D] pyrimidines used as inhibitors of the PDE-4 and/or the release of TNF-ALPHA” (The Medicines Company (Leipzig) GmbH, priority 2004, dated 2011)
Where “and” joins values, the source holds several entries; their conditions need not be identical. Equal values may be shown once. Where a name gives a salt, the structure may show the parent alone.

Target: T1, PDE-4A (Homo sapiens, UniProt P27815)
T1 construct: PDE-4A catalytic domain comprising amino acids 342-704; made in house; host or cells: Escherichia coli
T1 sequence (P27815 342-704): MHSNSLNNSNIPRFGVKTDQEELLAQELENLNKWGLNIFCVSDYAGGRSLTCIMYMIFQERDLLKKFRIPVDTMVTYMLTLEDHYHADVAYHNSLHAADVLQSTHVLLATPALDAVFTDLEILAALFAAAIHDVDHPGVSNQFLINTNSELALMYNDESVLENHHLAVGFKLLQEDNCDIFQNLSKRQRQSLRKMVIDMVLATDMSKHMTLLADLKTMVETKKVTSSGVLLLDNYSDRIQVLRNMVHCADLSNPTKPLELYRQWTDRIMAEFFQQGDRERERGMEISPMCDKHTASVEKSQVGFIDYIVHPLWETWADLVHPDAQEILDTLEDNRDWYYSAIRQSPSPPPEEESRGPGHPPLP
Experiment: PDE-4A inhibitory assay (SPA)
Format: biochemical
From the text: Human recombinant PDE-4A catalytic domain comprising amino acids 342-704 was cloned into Escherichia coli and expressed, as described by W. Richter et al., Protein Expression and Purification (2000) 19: 375-383. The other posphodiesterases were either obtained from cell lines of human origin (TPH1 monocytes line for PDE-1, MCF7 for PDE-5) or expressed recombinantly in sf9 insect cells (for PDE-3A, PDE-3B, PDE-7A and PDE-4D) in accordance with an adapted method by Luckow, V. A. et al., in: Recombinant DNA Technology & Applications., (1991) eds. Prokop, Bajpai, R. K. & Ho, C. S., pp 97-152.
The phosphodiesterase activity was determined by the SPA assay as described by the manufacturer Amersham Biosciences and by Horton J. K and Baxendale P. M., Methods Mol. Biol. (1995) 41: 91-105.
The reaction mixtures contained 100 mM Tris-HCl (pH 7.5), 5 mM MgCl2, 3.8 mM 2-mercaptoethanol, and 1 μM cAMP or cGMP as a substrate, the inhibitors at different concentrations and also further components required for the detection of the individual isoenzymes (see below). The reaction was started by adding the enzyme. The operating volume is 100 μl in the wells of a white 96-Well microtiter plate. The test substances were produced as stock solutions in DMSO. The DMSO concentration in the reaction batch was 1% v/v. The PDE activity is not impaired with this DMSO concentration. Having started the reaction by the addition of enzyme, the samples were incubated at 22° C. for 20 min. The reaction was stopped by the addition of SPA bead suspension which contains the zinc sulfate concentration provided according to the manufacturer. Then, the beads are allowed to sediment for 30 min and the plates are analyzed on the luminescence microtiter plate reader Fluostar Optima (BMG Labtechologies).
[^3H]-cAMP was used as a substrate for determining the activity of PDE-2, -3, -4 and -7 and [^3H]-cGMP for determining the activity of PDE-5. The non-specific enzyme activities were determined in the presence of 100 μM rolipram (for PDE-4) and in the presence of 100 μM IBMX (for PDE-3 and -5) and subtracted from the test values. The incubation samples of the PDE-3 assay contain 10 μM rolipram to inhibit possible contaminations by PDE-4. The PDE-2 activity is tested using a SPA assay by Amersham Biosciences in the presence of the PDE-2 activator 5 μM cGMP. […] The selectivity as to PDEs 2, 3 and 5 has a factor of 100 to 10 000.

Row | IC50 | SMILES
1 | 2 to 50 nM | Cc1cc(-c2ccccc2)nc2sc3c(N4CCNCC4)nc(OCC(F)F)nc3c12 [2-(2,2-Difluoro-ethoxy)-9-methyl-7-phenyl-4-(piperazin-1-yl)-pyrido[3′,2′:4,5]thieno[3,2-d]pyrimidine]
2 | 2 to 50 nM | CCc1cc(-c2ccc(C)cc2)nc2sc3c(N4CCNCC4)nc(OCCO)nc3c12 [2-(2-Hydroxy-ethoxy)-9-ethyl-7-(4-methyl-phenyl)-4-(piperazin-1-yl)-pyrido[3′,2′:4,5]thieno[3,2-d]pyrimidine]
3 | 2 to 50 nM | CCOc1nc(N2CCNCC2)c2sc3nc(C(C)C)cc(C(C)C)c3c2n1 [2-Ethoxy-7,9-di-iso-propyl-4-(piperazin-1-yl)-pyrido[3′,2′:4,5]thieno[3,2-d]pyrimidine]
4 | < 2 nM | CCOc1ccc(-c2cc(CC)c3c(n2)sc2c(N4CCNCC4)nc(OCC)nc23)cc1 [2-Ethoxy-7-(4-ethoxy-phenyl)-9-ethyl-4-(piperazin-1-yl)-pyrido[3′,2′:4,5]thieno[3,2-d]pyrimidine]
5 | 2 to 50 nM | CCOc1nc(N2CCNCC2)c2sc3nc(C)cc(-c4ccccc4)c3c2n1 [2-Ethoxy-7-methyl-9-phenyl-4-(piperazin-1-yl)-pyrido[3′,2′:4,5]thieno[3,2-d]pyrimidine]
6 | < 2 nM | CCOc1nc(N2CCNCC2)c2sc3nc(-c4ccc5c(c4)OCCO5)cc(CC)c3c2n1 [2-Ethoxy-9-ethyl-7-(2,3-dihydrobenzo[b][1,4]dioxin-6-yl)-4-(piperazin-1-yl)-pyrido[3′,2′:4,5]thieno[3,2-d]pyrimidine]
7 | < 2 nM and 2 to 50 nM | CCOc1nc(N2CCNCC2)c2sc3nc(-c4ccc(C)cc4)cc(CC)c3c2n1 [2-Ethoxy-9-ethyl-7-(4-methyl-phenyl)-4-(piperazin-1-yl)-pyrido[3′,2′:4,5]thieno[3,2-d]pyrimidine]
8 | 2 to 50 nM | CCOc1nc(N2CCNCC2)c2sc3nc(-c4ccc5c(c4)OCO5)cc(C)c3c2n1 [2-Ethoxy-9-methyl-7-(3,4-methylenedioxyphenyl)-4-piperazin-1-yl-pyrido[3′,2′:4,5]thieno-[3,2-d]pyrimidine]
9 | 2 to 50 nM | CCOc1nc(N2CCNCC2)c2sc3nc(-c4ccc(C)cc4)cc(C)c3c2n1 [2-Ethoxy-9-methyl-7-(4-methyl-phenyl)-4-(piperazin-1-yl)-pyrido[3′,2′:4,5]thieno[3,2-d]pyrimidine]
10 | 2 to 50 nM | CCOc1nc(N2CCNCC2)c2sc3nc(N4CCOCC4)cc(C)c3c2n1 [2-Ethoxy-9-methyl-7-morpholino-4-(piperazin-1-yl)-pyrido[3′,2′:4,5]thieno[3,2-d]pyrimidine]
11 | 2 to 50 nM | CCOc1nc(N2CCNCC2)c2sc3nc(-c4cccs4)cc(C)c3c2n1 [2-Ethoxy-9-methyl-7-thien-2-yl-9-methyl-4-(piperazin-1-yl)-pyrido[3′,2′:4,5]thieno[3,2-d]pyrimidine]
12 | < 2 nM | CCOc1nc(N2CCNCC2)nc2c1sc1nc(-c3ccc(-c4ccc(C(=O)OC)cc4N)cc3)nc(C)c12 [2′-Amino-4-(4-ethoxy-9-methyl-2-piperazin-1-yl-thieno[2,3-d:4,5-d′]dipyrimidin-7-yl)-biphenyl-4′-carboxylic acid methyl ester]
13 | 2 to 50 nM | CCOc1nc(N2CCNCC2)nc2c1sc1nc(-c3ccc(-c4ccc(C(=O)O)cc4N)cc3)nc(C)c12 [2′-Amino-4-(4-ethoxy-9-methyl-2-piperazin-1-yl-thieno[2,3-d:4,5-d′]dipyrimidin-7-yl)-biphenyl-4′-carboxylic acid sodium salt]
14 | 2 to 50 nM | Cc1cc(-c2ccccc2)nc2sc3c(OCC(F)F)nc(N4CCNCC4)nc3c12 [4-(2,2-Difluoro-ethoxy)-9-methyl-7-phenyl-2-(piperazin-1-yl)-pyrido[3′,2′:4,5]thieno[3,2-d]pyrimidine]
15 | 2 to 50 nM | Cc1cc(-c2ccccc2)nc2sc3c(OCCO)nc(N4CCNCC4)nc3c12 [4-(2-Hydroxy-ethoxy)-9-methyl-7-phenyl-2-(piperazin-1-yl)-pyrido[3′,2′:4,5]thieno[3,2-d]pyrimidine]
16 | 2 to 50 nM | CCOc1nc(N2CCNCC2)nc2c1sc1nc(-c3ccc(-c4cccc(C(=O)OC)c4)cc3)nc(C)c12 [4-(4-Ethoxy-9-methyl-2-piperazin-1-yl-thieno[2,3-d:4,5-d′]dipyrimidin-7-yl)-biphenyl-3′-carboxylic acid methyl ester]

Row | IC50 | SMILES
17 | 2 to 50 nM | CCOc1nc(N2CCNCC2)nc2c1sc1nc(-c3ccc(-c4cccc(C(=O)O)c4)cc3)nc(C)c12 [4-(4-Ethoxy-9-methyl-2-piperazin-1-yl-thieno[2,3-d:4,5-d′]dipyrimidin-7-yl)-biphenyl-3′-carboxylic acid potassium salt]
18 | 2 to 50 nM | CCOC(=O)c1ccc(-c2ccc(-c3nc(C)c4c(n3)sc3c(OCC)nc(N5CCNCC5)nc34)cc2)cc1 [4-(4-Ethoxy-9-methyl-2-piperazin-1-yl-thieno[2,3-d:4,5-d′]dipyrimidin-7-yl)-biphenyl-4′-carboxylic acid ethyl ester]
19 | 2 to 50 nM | CCOc1nc(N2CCNCC2)nc2c1sc1nc(-c3ccc(-c4ccc(C(=O)O)cc4)cc3)nc(C)c12 [4-(4-Ethoxy-9-methyl-2-piperazin-1-yl-thieno[2,3-d:4,5-d′]dipyrimidin-7-yl)-biphenyl-4′-carboxylic acid sodium salt]
20 | < 2 nM | CCOc1nc(N2CCNCC2)nc2c1sc1nc(-c3ccc(NC(=O)OC)cc3)cc(C(F)(F)F)c12 [4-(4-Ethoxy-9-trifluoromethyl-2-piperazin-1-yl-pyrido[3′,2′:4,5]thieno[3,2-d]pyrimidin-7-yl)-phenyl-carbamic acid methyl ester]
21 | < 2 nM | CCOc1nc(N2CCNCC2)nc2c1sc1nc(-c3ccc(N4CCCCC4)cc3)cc(C(F)(F)F)c12 [4-Ethoxy-2-(piperazin-1-yl)-7-(4-(piperidin-1-yl)phenyl)-9-trifluoromethyl-pyrido[3′,2′:4,5]thieno[3,2-d]pyrimidine]
22 | 2 to 50 nM | CCOc1nc(N2CCNCC2)nc2c1sc1nc(-c3ccccn3)cc(C(F)(F)F)c12 [4-Ethoxy-2-piperazin-1-yl-7-(2-pyridyl)-9-trifluoromethyl-pyrido[3′,2′:4,5]thieno[3,2-d]pyrimidine]
23 | 2 to 50 nM | CCOc1nc(N2CCNCC2)nc2c1sc1nc(-c3cc(OC)c(OC)c(OC)c3)cc(C(F)(F)F)c12 [4-Ethoxy-2-piperazin-1-yl-9-trifluoromethyl-7-(3,4,5-trimethoxy-phenyl)-pyrido[3′,2′:4,5]thieno[3,2-d]pyrimidine]
24 | 2 to 50 nM | CCOc1nc(N2CCNCC2)nc2c1sc1nc(C(C)C)cc(C(C)C)c12 [4-Ethoxy-7,9-di-iso-propyl-2-(piperazin-1-yl)-pyrido[3′,2′:4,5]thieno[3,2-d]pyrimidine]
25 | 2 to 50 nM | CCOc1nc(N2CCNCC2)nc2c1sc1nc(-c3ccc(OC)c(OC)c3)cc(C)c12 [4-Ethoxy-7-(3,4-dimethoxy-phenyl)-9-methyl-2-(piperazin-1-yl)-pyrido[3′,2′:4,5]thieno-[3,2-d]pyrimidine]
26 | < 2 nM | CCOc1nc(N2CCNCC2)nc2c1sc1nc(-c3ccc4c(c3)OCO4)cc(C(F)(F)F)c12 [4-Ethoxy-7-(3,4-methylenedioxyphenyl)-2-piperazin-1-yl-9-trifluoromethyl-pyrido[3′,2′:4,5]thieno-[3,2-d]pyrimidine]
27 | < 2 nM | CCOc1nc(N2CCNCC2)nc2c1sc1nc(-c3cccc([N+](=O)[O-])c3)cc(C(F)(F)F)c12 [4-Ethoxy-7-(3-nitro-phenyl)-2-piperazin-1-yl-9-trifluoromethyl-pyrido[3′,2′:4,5]thieno[3,2-d]pyrimidine]
28 | < 2 nM | CCOc1nc(N2CCNCC2)nc2c1sc1nc(-c3ccc(-n4cccn4)cc3)cc(C(F)(F)F)c12 [4-Ethoxy-7-(4-(1H-pyrazol-1-yl)-phenyl)-2-piperazin-1-yl-9-trifluoromethyl-pyrido[3′,2′:4,5]thieno[3,2-d]pyrimidine]
29 | < 2 nM | CCOc1nc(N2CCNCC2)nc2c1sc1nc(-c3ccc(-n4cccn4)cc3)cc(CC)c12 [4-Ethoxy-7-(4-(1H-pyrazol-1-yl)-phenyl)-9-ethyl-2-piperazin-1-yl-pyrido[3′,2′:4,5]thieno[3,2-d]pyrimidine]
30 | < 2 nM | CCOc1nc(N2CCNCC2)nc2c1sc1nc(-c3ccc(-c4ccco4)cc3)nc(C)c12 [4-Ethoxy-7-(4-[2-furyl]-phenyl)-9-methyl-2-piperazin-1-yl-thieno[2,3-d:4,5-d′]dipyrimidine]
31 | 2 to 50 nM | CCOc1nc(N2CCNCC2)nc2c1sc1nc(-c3ccc(C(O)c4cccnc4)cc3)nc(C)c12 (stereo not shown) [4-Ethoxy-7-(4-[hydroxy{3-pyridyl}methyl]-phenyl)-9-methyl-2-piperazin-1-yl-thieno[2,3-d:4,5-d′]dipyrimidine]
